Measurements: US9365551B2, “2-(benzyloxy) benzamides as LRRK2 kinase inhibitors” (Glaxo Group Limited, priority 2010, dated 2016)

Assays:
[1] = biological target: T1, 6His-Tev-LRRK2 (1326-2527) (Homo sapiens, UniProt Q5S007); experiment: LRRK2 AlphaScreen desensitised protein substrate assay; type: biochemical; settings: mean pIC50 of multiple test results
T1 construct: A LRRK2 cDNA encoding residues 1326-2527 was received from Dundee University; made in house; host or cells: Spodoptera frugiperda (Sf9) insect cells, baculovirus (pFB-HTb)
T1 sequence (Q5S007 1326-2527): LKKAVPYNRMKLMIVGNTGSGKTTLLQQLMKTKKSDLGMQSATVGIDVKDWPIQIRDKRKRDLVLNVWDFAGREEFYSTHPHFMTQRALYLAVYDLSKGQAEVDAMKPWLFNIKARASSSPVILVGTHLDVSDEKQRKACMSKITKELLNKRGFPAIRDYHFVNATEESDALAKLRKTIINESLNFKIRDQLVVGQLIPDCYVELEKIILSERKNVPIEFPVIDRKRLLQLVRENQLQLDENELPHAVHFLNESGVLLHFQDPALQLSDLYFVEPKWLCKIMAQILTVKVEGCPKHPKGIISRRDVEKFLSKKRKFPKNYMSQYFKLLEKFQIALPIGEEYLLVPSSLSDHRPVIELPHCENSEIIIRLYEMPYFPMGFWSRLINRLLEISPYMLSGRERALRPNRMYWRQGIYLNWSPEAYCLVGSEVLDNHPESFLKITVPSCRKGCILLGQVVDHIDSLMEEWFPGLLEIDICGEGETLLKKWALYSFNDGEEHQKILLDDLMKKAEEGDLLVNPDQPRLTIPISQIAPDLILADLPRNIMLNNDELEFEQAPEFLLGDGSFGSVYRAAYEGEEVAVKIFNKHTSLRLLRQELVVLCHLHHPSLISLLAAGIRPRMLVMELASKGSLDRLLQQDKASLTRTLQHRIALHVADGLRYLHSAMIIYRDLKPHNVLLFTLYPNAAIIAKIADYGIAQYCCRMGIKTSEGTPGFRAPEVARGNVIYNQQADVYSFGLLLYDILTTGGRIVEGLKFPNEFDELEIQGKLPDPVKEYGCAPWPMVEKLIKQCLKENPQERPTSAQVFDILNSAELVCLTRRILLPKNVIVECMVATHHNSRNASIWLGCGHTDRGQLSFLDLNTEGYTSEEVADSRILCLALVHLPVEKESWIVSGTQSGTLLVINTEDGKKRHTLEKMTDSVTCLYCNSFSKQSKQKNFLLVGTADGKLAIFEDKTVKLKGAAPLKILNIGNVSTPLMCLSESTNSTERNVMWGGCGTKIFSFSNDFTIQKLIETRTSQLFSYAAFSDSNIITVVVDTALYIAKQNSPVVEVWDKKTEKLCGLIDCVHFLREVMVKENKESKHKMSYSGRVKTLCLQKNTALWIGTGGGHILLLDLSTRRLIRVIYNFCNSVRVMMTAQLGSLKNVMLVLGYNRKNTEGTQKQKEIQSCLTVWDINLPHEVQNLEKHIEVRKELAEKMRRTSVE
Experimental: (§1) Compounds of formula (I) may be tested for in vitro kinase activity in accordance with the following assays, using the non natural, in vitro, substrates moesin and the Longer Biotin-LRRKtide. Moesin and a shorter version of the peptide were identified as substrates in Jaleel et al. (2007, Biochem J, 405: 307-317).
(§2) b) 3 μl enzyme solution (80 nM purified recombinant 6His-Tev-LRRK2 (1326-2527) in assay buffer: 50 mM Hepes (pH 7.2), 10 mM MgCl2, 150 mM NaCl, 5% glycerol, 0.0025% triton X-100 and 1 mM DTT) is added to certain wells. 3 μl assay buffer is added to certain wells as a 100% inhibition (no enzyme) control. c) After incubation at room temperature for 30 minutes, 3 μl substrate solution (2 μM Biotin-LRRKtide peptide substrate and ATP at Km in assay buffer) is added to each well. Plates are then incubated for a further 1-2 hours at room temperature (incubation time varies depending upon rate and linearity of reaction with differing enzyme batches). d) 6 μl detection solution (50 nM Streptavidin SureLight® APC (PerkinElmer), 4 nM Eu-W1024 labelled anti-rabbit IgG antibody (PerkinElmer), 1:500 dilution (dilution determined on a batch to batch basis) of Phospho-Ezrin (Thr567)/Radixin (Thr564)/Moesin (Thr558) Polyclonal Antibody (New England Biolabs) and 60 mM EDTA in buffer: 40 mM Hepes (pH 7.2), 150 mM NaCl, 0.03% BSA) is added to each well. Plates are then incubated for a further 2 hours at room temperature before reading on a suitable plate reader (Excitation 330 nm, emission 620 nm (Eu) and 665 nm (APC)). Data is analysed using ActivityBase software (IDBS). LRRK2 AlphaScreen Desensitised Protein Substrate Assay a) 100 nl of a 1:4 serial dilution of test compound with a top final assay concentration of 30 μM is added to certain wells in a low volume 384 well black plate. 100 nl of DMSO is used in certain wells as controls. b) 3 μl enzyme solution (80 nM purified recombinant 6His-Tev-LRRK2 (1326-2527) in assay buffer: 50 mM Hepes (pH 7.2), 10 mM MgCl2, 150 mM NaCl, 5% glycerol, 0.0025% triton X-100 and 1 mM DTT) is added to certain wells. 3 μl assay buffer is added to certain wells as a 100% inhibition (no enzyme) control. c) After incubation at room temperature for 30 minutes, 3 μl substrate solution (200 nM GST-PS-Moesin (400-577) and 2 mM ATP in assay buffer) is added to each well. Plates are then incubated for 20 minutes at room temperature. d) 6 μl detection solution (1:250 dilution of AlphaLisa Protein A Acceptor beads (PerkinElmer), 1:64 dilution of AlphaLisa Gluthathione Donor beads (PerkinElmer) and 1:600 dilution (dilution determined on a batch to batch basis) of Phospho-Ezrin (Thr567)/Radixin (Thr564)/Moesin (Thr558) Polyclonal Antibody (New England Biolabs) in a buffer: 50 mM Hepes (pH 7.5), 250 mM NaCl, 60 mM EDTA, 1% PEG and 0.01% Brij 35) is added to each well. Plates are then incubated for a further 2 hours at room temperature in the dark before reading on an EnVision™ plate reader with AlphaScreen HTS turbo option module and AlphaScreen settings. Data is analysed using ActivityBase software (IDBS). Pharmacological Data

[2] = biological target: T1, 6His-Tev-LRRK2 (1326-2527); experiment: LRRK2 peptide substrate assay; type: biochemical; settings: mean pIC50 of multiple test results
Experimental: as §1
LRRK2 Peptide Substrate Assay
a) 100 nl of a 1:4 serial dilution of test compound with a top final assay concentration of 30 μM is added to certain wells in a low volume 384 well black plate. 100 nl of DMSO is used in certain wells as controls.
as §2

[3] = GST-PS-Moesin (400-577) substrate, 2 mM ATP, read-out: LRRK2 alphascreen desensitized protein substrate assay (pIC50) (converted)
[4] = stated as threshold, read-out: pIC50 in the LRRK2 alphascreen desensitised protein substrate assay (bounds) (converted)
[5] = Biotin-LRRKtide peptide substrate, ATP at Km, read-out: LRRK2 peptide substrate assay (pIC50) (converted)
[6] = stated as threshold, read-out: pIC50 in the LRRK2 peptide substrate assay (bounds) (converted)

| Structure (SMILES) | IC50 [1, 3] | IC50 [1, 4] | IC50 [2, 5] | IC50 [2, 6] |
| --- | --- | --- | --- | --- |
| Cn1cc(-c2cc(C(=O)Nc3cccnc3)c(OCc3ccc(F)cc3)cc2CN2CCOCC2)cn1 [Example 17, 2-{[(4-Fluorophenyl)methyl]oxy}-5-(1-methyl-1H-pyrazol-4-yl)-4-(4-morpholinylmethyl)-N-3-pyridinylbenzamide] | 158 nM | ≤ 316 nM | 50.1 nM | ≤ 100 nM |
| Cc1nocc1NC(=O)c1cc(-c2cnn(C)c2)c(CN2CCOCC2)cc1OCc1ccc(F)cc1 [Example 18, 2-{[(4-Fluorophenyl)methyl]oxy}-N-(3-methyl-4-isoxazolyl)-5-(1-methyl-1H-pyrazol-4-yl)-4-(4-morpholinylmethyl)benzamide] | 398 nM | ≤ 25100 nM | 12.6 nM | ≤ 100 nM |
| Cn1cc(-c2cc(C(=O)Nc3cccnc3)c(OCc3ccc(F)cc3F)cc2CN2CCOCC2)cn1 [Example 20, 2-{[(2,4-Difluorophenyl)methyl]oxy}-5-(1-methyl-1H-pyrazol-4-yl)-4-(4-morpholinylmethyl)-N-3-pyridinylbenzamide] | 200 nM | ≤ 316 nM | 63.1 nM | ≤ 100 nM |
| Cc1nocc1NC(=O)c1cc(-c2cnn(C)c2)c(CN2CCOCC2)cc1OCc1ccc(F)cc1F [Example 22, 2-{[(2,4-Difluorophenyl)methyl]oxy}-N-(3-methyl-4-isoxazolyl)-5-(1-methyl-1H-pyrazol-4-yl)-4-(4-morpholinylmethyl)benzamide] | – | ≤ 25100 nM | – | > 25100 nM |
| Cn1cc(-c2cc(C(=O)Nc3cccnc3)c(OCc3ccccc3)cc2C(=O)N2CCOCC2)cn1 [Example 23, 5-(1-Methyl-1H-pyrazol-4-yl)-4-(4-morpholinylcarbonyl)-2-[(phenylmethyl)oxy]-N-3-pyridinylbenzamide] | 200 nM | ≤ 316 nM | 12.6 nM | ≤ 100 nM |
| Cn1cc(-c2cc(C(=O)Nc3ccnnc3)c(OCc3ccccc3)cc2C(=O)N2CCOCC2)cn1 [Example 24, 5-(1-Methyl-1H-pyrazol-4-yl)-4-(4-morpholinylcarbonyl)-2-[(phenylmethyl)oxy]-N-4-pyridazinylbenzamide] | – | ≤ 25100 nM | – | ≤ 1260 nM |
| Cc1nocc1NC(=O)c1cc(-c2cnn(C)c2)c(C(=O)N2CCOCC2)cc1OCc1ccccc1 [Example 25, N-(3-Methyl-4-isoxazolyl)-5-(1-methyl-1H-pyrazol-4-yl)-4-(4-morpholinylcarbonyl)-2-[(phenylmethyl)oxy]benzamide] | – | ≤ 25100 nM | – | ≤ 100 nM |
| Cn1cc(-c2cc(C(=O)Nc3cccnc3)c(OCc3ccc(F)cc3)cc2C(=O)N2CCOCC2)cn1 [Example 26, 2-{[(4-Fluorophenyl)methyl]oxy}-5-(1-methyl-1H-pyrazol-4-yl)-4-(4-morpholinylcarbonyl)-N-3-pyridinylbenzamide] | – | ≤ 316 nM | – | ≤ 100 nM |
| Cn1cc(-c2cc(C(=O)Nc3ccnnc3)c(OCc3ccc(F)cc3)cc2C(=O)N2CCOCC2)cn1 [Example 27, 2-{[(4-Fluorophenyl)methyl]oxy}-5-(1-methyl-1H-pyrazol-4-yl)-4-(4-morpholinylcarbonyl)-N-4-pyridazinylbenzamide] | 1580 nM | ≤ 25100 nM | 50.1 nM | ≤ 100 nM |
| Cn1cc(-c2cc(OCc3ccc(F)cc3)c(C(=O)Nc3cccnc3)cc2C(=O)N2CCOCC2)cn1 [Example 28, 2-{[(4-Fluorophenyl)methyl]oxy}-4-(1-methyl-1H-pyrazol-4-yl)-5-(4-morpholinylcarbonyl)-N-3-pyridinylbenzamide] | – | ≤ 25100 nM | – | ≤ 1260 nM |
| Cn1cc(-c2cc(C(=O)Nc3cccnc3)c(OCc3ccccc3)cc2C(=O)N2CCCCC2)cn1 [Example 31, 5-(1-Methyl-1H-pyrazol-4-yl)-2-[(phenylmethyl)oxy]-4-(1-piperidinylcarbonyl)-N-3-pyridinylbenzamide] | 50.1 nM | ≤ 316 nM | 6.31 nM | ≤ 10 nM |
| CN(C)C(=O)c1cc(OCc2ccccc2)c(C(=O)Nc2cccnc2)cc1-c1cnn(C)c1 [Example 32] | 200 nM | ≤ 316 nM | 50.1 nM | ≤ 100 nM |
| O=C(Nc1cccnc1)c1cc(C(F)(F)F)c(CN2CCOCC2)cc1OCc1ccccc1 [Example 33, 2-(Benzyloxy)-4-(morpholinomethyl)-N-(pyridin-3-yl)-5-(trifluoromethyl)benzamide] | – | ≤ 316 nM | – | ≤ 100 nM |
| O=C(Nc1ccnnc1)c1cc(C(F)(F)F)c(CN2CCOCC2)cc1OCc1ccccc1 [Example 34, 4-(4-Morpholinylmethyl)-2-[(phenylmethyl)oxy]-N-4-pyridazinyl-5-(trifluoromethyl)benzamide] | – | ≤ 25100 nM | – | ≤ 1260 nM |
| O=C(Nc1cccnc1)c1cc(C(F)(F)F)c(CN2CCCCC2)cc1OCc1ccccc1 [Example 35, 2-[(Phenylmethyl)oxy]-4-(1-piperidinylmethyl)-N-3-pyridinyl-5-(trifluoromethyl)benzamide] | – | ≤ 25100 nM | – | ≤ 1260 nM |
| O=C(Nc1ccnnc1)c1cc(C(F)(F)F)c(CN2CCCCC2)cc1OCc1ccccc1 [Example 36, 2-[(Phenylmethyl)oxy]-4-(1-piperidinylmethyl)-N-4-pyridazinyl-5-(trifluoromethyl)benzamide] | – | ≤ 25100 nM | – | ≤ 1260 nM |
